This assay relates to U-2 OS (ATCC HTB-96) human osteosarcoma cell line. As to the kind of experiment: Timelapse imaging determination of sequential intermitotic times (IMT1, IMT2) in cell lineages. It counts as cell-based. The settings on record: U-2 OS lineages from progenitors exposed to 10 μM topotecan for 1 h. On the procedure:
Human osteosarcoma cell line (U-2 OS (ATCC HTB-96)23) derived from a person were used. The cells were maintained at 37° C. and 5% CO2 using standard tissue culture techniques. Media used was McCoys 5A modified (Sigma) supplemented with 2 mM glutamine, 100 units/ml penicillin, 100 μg/ml streptomycin and 10% fetal calf serum. The cells were seeded onto tissue culture plastic, PDMS layer with and without PDMS microtrench arrays and placed in a six-well multi-well dish (10^4 cells per ml) and left to establish for 24 hours. Post-24 hours incubation the culture dish was then immediately placed onto a timelapse imaging instrument designed to capture transmission phase images from multi-well plates. An Axiovert 100 microscope (Carl Zeiss, Welwyn Garden City, UK) was fitted with an incubator for 37° C./5% CO2 maintenance (Solent Scientific, Portsmouth, UK), and an ORCA-ER CCD camera (Hamamatsu, Reading, UK). All images were collected with a x10 (PH1) apochromat objective lens providing a full view of each microtrench format. Sequences were captured sampling at 15 min, and for three fields per treatment regime (using AQM, Kinetic Imaging, Nottingham, UK). MetaMorph software (Molecular Devices, California) was used to view the stacked image in sequence as for each experiment the images were stacked and saved as *.stk format. […]

Data on 1 compound can be found in US20110171663A1, “MICROTRENCH AND TUMOUR PROLIFERATION ASSAY” (University College Cardiff Consultants Ltd, priority 2008, published 2011).

Regarding `CC[C@@]1(O)C(=O)OCc2c1cc1n(c2=O)Cc2cc3c(CN(C)C)c(O)ccc3nc2-1` [topotecan], under “time between the division generating daughters and the division generating granddaughters”, the “IMT2 (av ± sd)” value is reported as 22.9 ± 5.5. In addition, the “IMT1 (av ± sd)” value (time between the division generating the mother cell and the division generating two daughters) stood at 24 ± 4.4.
